Source: patent US6436911B1, “IL-12 production inhibitor” (Seikagaku Corporation, priority 1999, dated 2002)

Assays:
[1] = tested on: peritoneal macrophages isolated from C3H/HeN mice; assay: IL-12 production in peritoneal macrophages from C3H/HeN mice (LPS + IFN-γ); format: cell-based; conditions: LPS 200 ng/ml, IFN-γ 2 U/ml, 24 hours, various L3 concentrations (FIG. 14)
Method: Ice-cooled phosphate buffered saline (PBS) was injected into abdominal cavities of C3H/HeN mice. After the abdomen of each mouse was massaged, the PBS was collected and centrifuged to obtain macrophages. A cell suspension was prepared by suspending the obtained macrophages in RPMI1640 medium (Sigma) containing 200 ng/ml of LPS, 2 U/ml of recombinant mouse interferon-γ (IFN-γ) and 10% fetal bovine serum at a concentration of 1×10^6 cells/ml. 100 μl of the cell suspension was dispensed on a 96-well flat-bottom plate and further 100 μl of L3 solution of which concentration was adjusted to be twice the final concentration in the RPMI1640 medium was added thereto. Then, the cells were cultured at 37° C. in the presence of 5% CO2 for 24 hours.
(§1) Subsequently, the plate was centrifuged to collect the culture supernatant. The IL-12 concentration in the supernatant was measured as described above.

[2] = tested on: peritoneal macrophages isolated from MRL mice; assay: LPS-stimulated IL-12 p70 production in peritoneal macrophages from MRL lpr/lpr mice; format: cell-based; conditions: for IL-12 p70 production, simultaneous treatment with LPS and test substance: LPS 100 ng/ml, various concentrations, 8-week-old and 39-week-old MRL mice (FIG. 6; L4L4 FIG. 12)
Method: Five to seven milliliters of ice-cooled Hank's balanced salt solution was injected in the abdominal cavities of 8- to 39-week-old MRL lpr/lpr mice and extracted 5 minutes later to collect resident peritoneal cells. The collected cells were cultured overnight in RPMI medium contained in a 96-well flat-bottom plate at 37° C. in the presence of 5% CO2. After the cultivation, non-adherent cells were removed and adherent cells were used as peritoneal macrophages for the experiment.
The cells were treated with lipopolysaccharide (LPS, List Biological Laboratories, Inc.) for 24 hours to stimulate IL-12 production. The concentration of IL-12 p70 in the cell culture supernatant was measured by using an IL-12 p70 ELISA kit (Endogen, Inc.) to evaluate the IL-12 production. As for the measured values, the average value and the standard deviation were obtained. Unless otherwise mentioned, the statistical significance was examined by the Williams' multiple comparison test.
The stimulation was performed for 24 hours in the medium containing LPS (100 ng/ml) and various concentrations of L4, and then the IL-12 production was evaluated.
Macrophages were treated with 100 ng/ml of LPS for 0, 2 or 6 hours, and then the medium was replaced with a fresh medium containing 1000 ng/ml of L4 or a fresh medium only (L4(-)) (consequently, IL-12 produced by the pretreatment was removed). 24 hours after the replacement of the medium, the IL-12 production was evaluated.
First, macrophages were treated with L4 at various concentrations for 24 hours and the medium was replaced with a medium containing 100 ng/ml of LPS. 24 hours after the replacement of the medium, the IL-12 production was evaluated.
The IL-12 production in the macrophages of MRL-lpr/lpr mice, pretreated with or without 1000 ng/ml of L4 for 24 hours then treated with 100 ng/ml of LPS for 24 hours (L4 pretreatment), and the treated with 100 ng/ml LPS together with or without 1000 ng/ml of L4 (simultaneous treatment), were compared. In FIG. 11, * and ** indicate that there was statistical significance at levels of p<0.05 and p<0.01, respectively, according to the Student's t-test.

MRL-lpr/lpr mice [3] = assay: Hematological test: white blood cell count (WBC) in blood of MRL-lpr/lpr mice; format: in vivo; conditions: day before autopsy
Excerpt: (§2) MRL lpr/lpr mice, C57BL/6 mice and ICR mice as normal controls were purchased from Japan Charles River Co., Ltd. and preliminarily maintained for several weeks before divided into groups. Blood was collected from the orbital venous plexus, and they were allocated according to the plasma creatinine level (CRE) as a first marker so that there would be no difference in the average value and the standard deviation for the creatinine level among the groups. They were also grouped so that there would be no difference in the plasma nitrogen level (BUN), white blood cell count (WBC), platelet count (PLT) and weight between groups as far as possible.
The test substances were administered from the next day of the grouping. Each of the test substances was dissolved in distilled water at a predetermined concentration to prepare a solution to be administered. The solution was intermittently administered 3 times per week for 4 weeks (total 12 doses). […]
Blood was collected from the orbital venous plexus at the time of the grouping and on the day before the autopsy. The white blood cell count (WBC) was measured by using an automatic cytometer for multiple test items (Sysmex K-2000: Toa Medical Electronics).
(§3) The average value and the standard deviation were calculated for the measured values obtained as above and the statistical significance was analyzed by Williams' multiple comparison test. […]

[4] = tested on: peritoneal macrophages isolated from C57BL/6 mice; assay: LPS-stimulated IL-12 p70 production in peritoneal macrophages from C57BL/6 mice; format: cell-based
MRL-lpr/lpr mice [5] = assay: Biochemical blood test: plasma creatinine (CRE) and urea nitrogen (BUN) in MRL-lpr/lpr mice; format: in vivo; conditions: Example 3; L4 3.2 mg/kg i.n.; 6 weeks; day before autopsy (FIG. 4)
Method: 9-Week old MRL lpr/lpr mice, C57BL/6 mice and ICR mice were purchased from Japan Charles River Co., Ltd. and preliminarily maintained for 6 weeks before divided into groups. The groups used were as follows.
Each of the test substance was dissolved in distilled water at a predetermined concentration to prepare a solution to be administered. The solution was intermittently administered 3 times per week for 6 weeks (total […]). Observation was performed for 45 days from the start of administration through the autopsy. Other conditions and methods were the same as those of Example 2.
Blood was collected from the orbital venous plexus and plasma creatinine level (CRE) and plasma urea nitrogen level (BUN) were measured by using an automatic analyzer for clinical chemistry (COBAS MIRA S: Nippon Roche) at the time of the grouping and on the day before the autopsy.

IL-12 = assay: Plasma IL-12 level (IL-12 p70 ELISA) in MRL-lpr/lpr mice after administration; format: in vivo; conditions: day before autopsy
Excerpt: Plasma IL-12 levels were examined using MRL-lpr/lpr mice treated with and without L4. Macrophages from MRL-lpr/lpr mice are known to markedly produce IL-12 and their serum IL-12 level is high (J. Exp. Med., 183, pp. 1447-1459 (1996)).
as §2
The test substances were administered from the next day of the grouping. […]
Blood was collected from the orbital venous plexus at the time of the grouping and on the day before the autopsy. The IL-12 concentration in blood plasma was measured by using an IL-12 p70 ELISA kit (Endogen, Inc.).
as §3

[6] = tested on: synovial cells collected from human rheumatoid arthritis patients; assay: IL-12 p70 production in synovial cells from rheumatoid arthritis patients (LPS + IFN-γ); format: cell-based; conditions: LPS 500 ng/ml, IFN-γ 50 U/ml
Method: A cell suspension was prepared by suspending synovial cells collected from human rheumatoid arthritis patients in RPMI1640 medium (Sigma) containing 500 ng/ml of LPS, 50 U/ml of recombinant mouse interferon-γ (IFN-γ) and 10% fetal bovine serum at a concentration of 1×10^6cells/ml.
100 μl of the aforementioned cell suspension was dispensed to a 96-well flat-bottom plate and further 100 μl of L4 solution of which concentration was adjusted to be twice the final concentration in the RPMI1640 medium was added thereto. Then, the cells were cultured at 37° C. in the presence of 5% CO2 for 24 hours.
as §1

CC(=O)N[C@H]1C(O)O[C@H](CO)[C@@H](O[C@@H]2O[C@H](COS(=O)(=O)O)[C@H](O)[C@H](O)[C@H]2O)[C@@H]1O (stereo partly drawn) [L3, Gal(6S)β1-4GlcNAc]
IL-12 production of macrophages [1]: inhibited IL-12 production of macrophages in a dose-dependent manner

CC(=O)NC1C(O)OC(COS(=O)(=O)[O-])C(OC2OC(COS(=O)(=O)[O-])C(O)C(OC3OC(COS(=O)(=O)[O-])C(OC4OC(COS(=O)(=O)[O-])C(O)C(O)C4O)C(O)C3NC(C)=O)C2O)C1O.[Na+].[Na+].[Na+].[Na+] [L4L4, Gal(6S)β1-4GlcNAc(6S)β1-3Gal(6S)β1-4GlcNAc(6S)]
IL-12 p70 production, simultaneous treatment with LPS and test substance ([2]; 24 hours): The same result was obtained

CC(=O)N[C@H]1C(O)O[C@H](COS(=O)(=O)O)[C@@H](O[C@@H]2O[C@H](COS(=O)(=O)O)[C@H](O)[C@H](O)[C@H]2O)[C@@H]1O (stereo partly drawn) [L4, Gal(6S)β1-4GlcNAc(6S)]
white blood cell count (WBC) in blood (MRL-lpr/lpr mice [3]; Example 2, low dose L4 administered groups, 3 times per week for 4 weeks, vs DW group, p<0.05 (FIG. 1)): significant inhibition of the increase in WBC | white blood cell count (WBC) in blood (MRL-lpr/lpr mice [3]; Example 3, L4 3.2 mg/kg i.n., 3 times per week for 6 weeks, p<0.05 (FIG. 3)): significant inhibition of the increase in WBC | IL-12 p70 production, L4 pretreatment compared with simultaneous treatment ([2]; 1000 ng/ml L4, 100 ng/ml LPS, 24 hours (FIG. 11)): inhibits IL-12 production more efficiently compared with the simultaneous treatment | IL-12 p70 production, stimulation with LPS after pretreatment with L4, high doses ([2]; L4 100 ng/ml or more, 24 hours, then LPS 100 ng/ml 24 hours (FIG. 9)): almost completely inhibited | IL-12 p70 production, stimulation with LPS after pretreatment with L4 ([2]; L4 various concentrations 24 hours, then LPS 100 ng/ml 24 hours (FIG. 9)): L4 pretreatment inhibits the IL-12 production | IL-12 p70 production, treatment with L4 after preliminary stimulation with LPS ([2]; LPS 100 ng/ml for 2 and 6 hours, then 1000 ng/ml L4, 24 hours (FIG. 8)): Inhibition of the IL-12 production by L4 was also observed | IL-12 p70 production, simultaneous treatment with LPS and test substance ([2]; 24 hours): dose-dependent inhibitory effect on the IL-12 production | IL-12 p70 production, stimulation with LPS after pretreatment with L4 ([4]; C57BL/6 mice, pretreated with L4 for 36 hours (FIG. 10)): The same results were also obtained | IL-12 p70 production, simultaneous treatment with LPS and L4 ([4]; LPS 100 ng/ml, 24 hours, various concentrations of L4, C57BL/6 mice (FIG. 7)): The same result was also obtained | plasma creatinine level (CRE) (MRL-lpr/lpr mice [5]): significant decrease | plasma urea nitrogen level (BUN) (MRL-lpr/lpr mice [5]): significant decrease | IL-12 level in plasma (IL-12; Example 2, L4 1.6 mg/kg i.n. and 80 mg/kg p.o., 3 times per week for 4 weeks, p<0.05/p<0.01 (FIG. 2)): significant inhibition of the increase in IL-12 | IL-12 level in plasma (IL-12; Example 3, L4 3.2 mg/kg i.n., 3 times per week for 6 weeks, p<0.01 (FIG. 5)): significant inhibition of the increase in the IL-12 | IL-12 production in synovial cells at 1000 ng/ml ([6]; 1000 ng/ml L4, 24 hours (FIG. 13)): almost halved | IL-12 production in synovial cells ([6]; 24 hours, various L4 concentrations (FIG. 13)): tendency that addition of L4 inhibited IL-12 production
